The text below walks through data of ChEMBL document CHEMBL4808244, “Design, synthesis and anti-fibrosis evaluation of imidazo[1,2-a]pyridine derivatives as potent ATX inhibitors” (Bioorg Med Chem, 2021).

Structures are written as SMILES. The source made the active and inactive calls. The rule behind the calls is not given here.

The first test relates to Mus musculus. The test is described as follows: Antifibrotic activity in C57BL/6 mouse model of bleomycin-induced idiopathic pulmonary fibrosis assessed as inhibition of collagen deposition at 30-60 mg/kg, po dosed for 31 consecutive days followed by tracheal administration of bleomycin by masson's staining based histopathological analysis. In kind it is functional, organism-based. The settings on record: time 31.0 day.
For the compound `CCc1nc2c(C)cc(-c3ccc(CN4CCC(O)CC4)cc3)cn2c1NC(=O)NCc1ccc(F)cc1`, the inhibition entry is “Active”.

Take `CCc1nc2c(C)cc(N3CCN(CC(=O)N4CC(O)C4)CC3)cn2c1N(C)c1nc(-c2ccc(F)cc2)c(C#N)s1`: the inhibition result is “Active”.

The subject of the next test is Mus musculus. Nature of the test: Antifibrotic activity in C57BL/6J mouse model of bleomycin-induced idiopathic pulmonary fibrosis assessed as inhibition of changes in lung textures at 30-60 mg/kg, po dosed for 31 consecutive days followed by tracheal administration of bleomycin by masson's staining based histopathological analysis. In kind it is functional, organism-based. The settings on record: time 31.0 day.
`CCc1nc2c(C)cc(-c3ccc(CN4CCC(O)CC4)cc3)cn2c1NC(=O)NCc1ccc(F)cc1`: the inhibition entry is “Active”.

Regarding `CCc1nc2c(C)cc(N3CCN(CC(=O)N4CC(O)C4)CC3)cn2c1N(C)c1nc(-c2ccc(F)cc2)c(C#N)s1`, the inhibition entry was “Active”.

In the next test the test system is Mus musculus. The test is described as follows: Antifibrotic activity in C57BL/6 mouse model of bleomycin-induced idiopathic pulmonary fibrosis assessed as survival rate at 30-60 mg/kg, po dosed for 31 consecutive days followed by tracheal administration of bleomycin relative to control. In kind it is functional. The settings on record: C57BL/6, po, 744 h, time 31 day.
`CCc1nc2c(C)cc(-c3ccc(CN4CCC(O)CC4)cc3)cn2c1NC(=O)NCc1ccc(F)cc1`: the survival at 60 mg/kg worked out at 100%.

In a further test the target is Autotaxin (Homo sapiens, UniProt Q13822). Nature of the test: Inhibition of human ATX using FS-3 as substrate preincubated for 45 mins followed by substrate addition and measured every 1 min for 30 mins by fluorescence microplate reader assay.
Settings: not given
One may read the IC50 as the concentration that inhibits the measured activity by half. For the compound `CCc1nc2c(C)cc(-c3ccc(CN4CCC(O)CC4)cc3)cn2c1NC(=O)NCc1ccc(Cl)cc1`, the midpoint of inhibition, the IC50, lay at 237 nM.

The compound `CCc1nc2c(C)cc(-c3ccc(CN4CCC(O)CC4)cc3)cn2c1NC(=O)NCc1ccc(OC)c(Cl)c1` had an IC50 of 7.41 nM.

On to `CCc1nc2c(C)cc(-c3ccc(CN4CCN(CC)CC4)cc3)cn2c1NC(=O)NCc1ccc(Cl)cc1`, for which the IC50 amounted to 688 nM.

As for `CCc1nc2c(C)cc(-c3ccc(CN4CCOCC4)cc3)cn2c1NC(=O)NCc1ccc(OC)c(Cl)c1`, the IC50 was determined as 71.7 nM.

As for `CCc1nc2c(C)cc(-c3ccc(C(=O)N4CCN(C)CC4)cc3)cn2c1NC(=O)NCc1ccc(F)cc1`, the IC50 was 257 nM.

As for `COc1ccc(CNC(=O)Nc2c(C)nc3c(C)cc(-c4ccc(CN5CCC(O)CC5)cc4)cn23)cc1Cl`, half-maximal inhibition (IC50) required 11 nM.

Compound `CCc1nc2c(C)cc(-c3ccc(CN4CCCC4)cc3)cn2c1NC(=O)NCc1ccc(Cl)cc1` gave an IC50 of 1070 nM.

`CCc1nc2c(C)cc(-c3ccc(C(=O)N4CCN(CC)CC4)cc3)cn2c1NC(=O)NCc1ccc(F)cc1` gave an IC50 greater than 1000 nM.

`CCc1nc2c(C)cc(-c3ccc(CN4CCC(O)CC4)cc3)cn2c1NC(=O)NCc1ccc(F)cc1` returned a concentration for half-maximal inhibition (IC50) of 1.72 nM.

Compound `CCc1nc2c(C)cc(-c3ccc(C(=O)N4CCC(O)CC4)cc3)cn2c1NC(=O)NCc1ccc(OC)c(Cl)c1` registered an IC50 of 11.7 nM.

Regarding `CCc1nc2c(C)cc(-c3ccc(CN4CCCCC4)cc3)cn2c1NC(=O)NCc1ccc(Cl)cc1`, the IC50 came to 647 nM.

As for `CCc1nc2c(C)cc(-c3ccc(C(=O)N4CCCCC4)cc3)cn2c1NC(=O)NCc1ccc(F)cc1`, the half-inhibitory concentration (IC50) worked out at 626 nM.

In turn, `CCc1nc2c(C)cc(-c3ccc(CN4CCN(C)CC4)cc3)cn2c1NC(=O)NCc1ccc(F)cc1` returned an IC50 of 451 nM.

On to `CCc1nc2c(C)cc(-c3ccc(CN4CCOCC4)cc3)cn2c1NC(=O)NCc1ccc(Cl)cc1`, for which the IC50 is 283 nM.

`COc1ccc(CNC(=O)Nc2c(C)nc3c(C)cc(-c4ccc(CN5CCN(CCO)CC5)cc4)cn23)cc1Cl` registered an IC50 of 79.1 nM.

Consider `CCc1nc2c(C)cc(-c3ccc(CN4CCSCC4)cc3)cn2c1NC(=O)NCc1ccc(OC)c(Cl)c1`, for which the 50% inhibitory concentration (IC50) was greater than 1000 nM.

The compound `CCc1nc2c(C)cc(-c3ccc(C(=O)N4CCC(O)CC4)cc3)cn2c1NC(=O)NCc1ccc(F)cc1` came in with a 50% inhibitory concentration (IC50) of 9.17 nM.

`CCc1nc2c(C)cc(-c3ccc(CN4CCC[C@H]4CO)cc3)cn2c1NC(=O)NCc1ccc(OC)c(Cl)c1` gave an IC50 of 497 nM.

For the compound `CCc1nc2c(C)cc(-c3ccc(CN4CCN(CCO)CC4)cc3)cn2c1NC(=O)NCc1ccc(OC)c(Cl)c1`, the IC50 amounted to 5.43 nM.

As for `CCc1nc2c(C)cc(-c3ccc(C(=O)N4CCN(C)CC4)cc3)cn2c1NC(=O)NCc1ccc(OC)c(Cl)c1`, the IC50 was found to be 213 nM.
